Earlier results on six compounds are cited in patent publication US7604797B2, “Compositions and methods for treating burns” (BioMechanisms Inc., priority 2003, dated 2009).

The subject of data set [1] is gram-positive and gram-negative organisms, fungi. The note with it: topical use on burns.
A further data set has as its system malignant tumors. The note with it: for Tumor response in patients: acute lymphocytic leukemia, Burkitt's lymphoma, breast carcinoma, mycosis fungoides, epidermoid head and neck cancer, osteogenic sarcoma; for Toxicity of chemotherapy: partly related to polyglutamate formation.

Like-named read-outs stand apart in the source and are kept apart here. Where a SMILES comes first, the peptide text is derived from it. Bridges are numbered along the chain shown (N, C = ends). [ ]: non-standard residue; d: D form. The star is where a group is joined. Ileψ(thiazoline)Cys = CC[C@H](C)[C@H](N)C1=N[C@H](C(=O)*)CS1; dOrn = NCCC[C@@H](N)C(=O)O

Regarding Polymyxin B Sulfate, the “Toxicity and adverse effects in use” value with burn patients (topical use on burns) is recorded as “microorganisms. Non-toxic”. For the same compound, the “Benefits: effectiveness against microorganisms” value (from here on “Benefits: effectiveness”) in data set [1] is “Effective agains gram-”.

As to `CC[C@H](C)[C@H](N)C1=N[C@H](C(=O)N[C@@H](CC(C)C)C(=O)N[C@H](CCC(=O)O)C(=O)N[C@H](C(=O)N[C@H]2CCCCNC(=O)[C@H](CC(N)=O)NC(=O)[C@@H](CC(=O)O)NC(=O)[C@H](Cc3cnc[nH]3)NC(=O)[C@@H](Cc3ccccc3)NC(=O)[C@H]([C@@H](C)CC)NC(=O)[C@@H](CCCN)NC2=O)[C@@H](C)CC)CS1` [Bacitracin] ({Ileψ(thiazoline)Cys}-L[dE]IK[dOrn]I[dF]H[dD]N; lactam 4-C), in the data set with burn patients (in vivo), the “Toxicity and adverse effects in use” value was “Safe, non-toxic”. Besides, in data set [1], the “Benefits: effectiveness” value is given as “Effective against gram-”.

Regarding `Nc1nc(N)c2nc(CNc3ccc(C(=O)NC(CCC(=O)O)C(=O)O)cc3)cnc2n1` (stereo not shown) [AMT, 4-amino-4-deoxy-pteroylglutamic acid], in the data set with malignant tumors, the “Tumor response in patients” value is “good to excellent tumor response” and the Toxicity of chemotherapy entry is recorded as “a variety of toxicities”.

For the compound `C[C@@H]1[C@H](O)[C@@H](C)/C=C/C=C/CC/C=C/C=C/C=C/C=C/C(O[C@H]2O[C@H](C)[C@@H](O)[C@H](N)[C@@H]2O)CC2O[C@](O)(CC(O)C(O)CCC(O)CC(O)CC(O)CC(=O)O[C@H]1C)CC(O)C2C(=O)O` (stereo partly shown) [Nystatin], the “Benefits: effectiveness” value in data set [1] is given as “Effective against the most”.

On to Neomycin, for which the “Benefits: effectiveness” value in data set [1] is reported as “Particularly effective”.

As for `CN(Cc1cnc2nc(N)nc(N)c2n1)c1ccc(C(=O)NC(CCC(=O)O)C(=O)O)cc1` (stereo not shown) [MTX, 4-amino-4-deoxy-N^10-methyl-pteroylglutamic acid], in the data set on malignant tumors, the “Tumor response in patients” value was “good to excellent tumor response” and the Toxicity of chemotherapy entry is reported as “a variety of toxicities”.
